Data: patent US10144715B2, “Piperazine derivatives as liver X receptor modulators” (priority 2014, dated 2018)
Where two headings read alike, the source gives them in different places.

What was measured:
LXR α LBD protein [1] = molecular target: T1, LXR α LBD protein (Homo sapiens (Human), UniProt Q13133); assay: Human LXRα coactivator recruitment FRET assay, agonist mode; format: biochemical
In short: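 Time-resolved FRET (delay 100 µs, window 200 µs) after 2 h rt incubation of compound with 10 nM (2×) GST-tagged LXRα or LXRβ LBD plus 200 nM fluorescein-SRC2-3 and 20 nM Tb-anti-GST (4×). Percent control vs concentration fit to four-parameter model; EC50 at inflection.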

[2] = molecular target: Gal4 DNA binding domain fused to the LBD of LXRβ in HEK293 cells (Homo sapiens (Human), UniProt P55055); assay: cell-based
Chain of Gal4 DNA binding domain fused to the LBD of LXRβ in HEK293 cells (P55055 222-460 limits assumed): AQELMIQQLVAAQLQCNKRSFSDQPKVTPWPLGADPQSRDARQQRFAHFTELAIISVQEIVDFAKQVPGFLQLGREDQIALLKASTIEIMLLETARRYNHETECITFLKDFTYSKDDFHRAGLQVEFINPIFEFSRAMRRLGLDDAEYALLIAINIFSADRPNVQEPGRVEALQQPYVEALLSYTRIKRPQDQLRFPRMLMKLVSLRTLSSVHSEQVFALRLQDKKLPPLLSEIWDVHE

LXR β LBD protein [3] = molecular target: T2, LXR β LBD protein (Homo sapiens (Human), UniProt P55055); assay: biochemical; format: binding; conditions: read-out: LXRβ Binding Ki
Target sequence in this assay (P55055 222-460 limits assumed): as above

[4] = molecular target: Gal4 DNA binding domain fused to the LBD of LXRα in HEK293 cells (Homo sapiens (Human), UniProt Q13133); assay: LXR luciferase transcriptional reporter gene assay, agonist mode, LXRα; format: cell-based
Chain of Gal4 DNA binding domain fused to the LBD of LXRα in HEK293 cells (Q13133 209-447): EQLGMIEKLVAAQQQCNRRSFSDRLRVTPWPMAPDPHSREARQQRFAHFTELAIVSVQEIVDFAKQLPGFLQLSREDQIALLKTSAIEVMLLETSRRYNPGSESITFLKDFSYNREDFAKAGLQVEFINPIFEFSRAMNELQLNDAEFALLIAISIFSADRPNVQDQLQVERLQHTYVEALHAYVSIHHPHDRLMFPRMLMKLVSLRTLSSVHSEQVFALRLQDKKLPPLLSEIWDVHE

LXR β LBD protein [5] = molecular target: T2, LXR β LBD protein; assay: biochemical; format: biochemical
Method: Two μL of the DMSO solutions were transferred to the plate and 38 μL of 10 nM LXRα-LBD or LXRβ-LBD (2×) were added immediately to the wells. The plate was shaken for 5 min at rt on an orbital micro shaker (DPC MicroMix® 5), after which 40 μL of 200 nM fluorescein-SRC2-3 peptide and 20 nM Terbium-anti-GST-antibody (Cat# PV3550, Life Technologies, Grand Island, N.Y.) solution (4×) were added to all. The plate was sealed and shaken for 2 min at rt, and incubated at rt for 2 h without agitation. […] The delay and window times were set at 100 and 200 microseconds, respectively. […] The percent control vs. compound concentration data were fit into a four-parameter model, and EC50 values were calculated from the fit as the concentrations corresponding to the inflection points on the concentration-response curves.
Target sequence in this assay (P55055 222-460): as the sequence (P55055 222-460 limits assumed) above

LXR α LBD protein [6] = molecular target: T1, LXR α LBD protein; assay: LXR α radioligand binding assay (SPA, competition with [3H]TO901317); conditions: read-out: LXRα Binding Ki
[7] = agonist mode, read-out: Cell LXRβ EC50
[8] = agonist mode, read-out: FRET LXRβ EC50
[9] = agonist mode, read-out: Cell LXRα EC50
[10] = Biological Test Example 3, agonist mode
[11] = Biological Test Example 2, agonist mode
[12] = Biological Test Example 2, agonist mode, read-out: Cell LXRα EC50

T1 sequence (Q13133 209-447): as the sequence (Q13133 209-447) above

Molecule	EC50 (LXR α LBD protein [1]; agonist mode)	FRET LXRα efficacy (LXR α LBD protein [1]; agonist mode)	Cell LXRβ efficacy ([2]; agonist mode)	EC50 [2, 7]	Ki (LXR β LBD protein [3])	Cell LXRα efficacy [4]	EC50 ([4]; read-out: Cell LXRα EC50)	FRET LXRβ efficacy (LXR β LBD protein [5]; agonist mode)	EC50 (LXR β LBD protein [5]; [8])	EC50 [2]	EC50 (LXR β LBD protein [5]; read-out: FRET LXRβ EC50)	also measured
CS(=O)(=O)c1cc(N2CCN(C[C@H]3CC[C@H](C(F)(F)F)CC3)[C@@H](c3ccccc3)C2)ccc1C(N)=O (single isomer, unassigned) [17-37]	0.605 µM	53%	24%	3.53 µM	1.01 µM	16011 (50) %	16 µM	85%	0.355 µM			Ki (LXR α LBD protein [6]): 3.21 µM
CS(=O)(=O)c1cc(N2CCN(C[C@H]3CC[C@@H](C(F)(F)F)CC3)[C@H](c3ccccc3)C2)ccc1C(N)=O (single isomer, unassigned) [17-38]	3.37 µM	34%	18%	1.79 µM	0.753 µM	4828 (13) %	4.83 µM	71%	0.561 µM			Ki (LXR α LBD protein [6]): 3.13 µM
CS(=O)(=O)c1cccc(N2CCN(Cc3ccc(C(F)(F)F)cc3)[C@@H](c3ccccc3)C2)c1 (single isomer, unassigned) [46-15]	1.52 µM	28%			0.158 µM	2993 (28) %				0.72 µM	0.418 µM	Cell LXRβ efficacy [2]: 720 (26) %; EC50 [4, 9]: 2.99 µM; FRET LXRβ efficacy (LXR β LBD protein [5]): 418 (45) %
CS(=O)(=O)c1cccc(N2CCN(Cc3ccc(OC(F)(F)F)cc3)[C@@H](c3ccccc3)C2)c1 (single isomer, unassigned) [46-23]	7.04 µM	47%			0.112 µM	4367 (45) %	4.37 µM			1.43 µM	0.71 µM	Cell LXRβ efficacy [2]: 1432 (29) %; FRET LXRβ efficacy (LXR β LBD protein [5]): 710 (57) %; Ki (LXR α LBD protein [6]): 1.04 µM
Cc1ccccc1[C@H]1CN(c2cccc(S(C)(=O)=O)c2)CCN1Cc1ccc(C(F)(F)F)nc1 (single isomer, unassigned) [46-46]	6.69 µM	30%	1989 (4) %		1.98 µM			1214 (51) %		1.99 µM	1.21 µM	EC50 [4, 9]: > 20 µM; Ki (LXR α LBD protein [6]): > 3.33 µM
CS(=O)(=O)c1cccc(N2CCN(C[C@H]3CC[C@H](C(F)(F)F)CC3)[C@H](c3ccccc3)C2)c1 (single isomer, unassigned) [48-32]	15.3 µM	59%	15%	3.34 µM		19000 (4) %	19 µM	97%	3.8 µM			
NS(=O)(=O)c1cccc(N2CCN(C[C@H]3CC[C@@H](C(F)(F)F)CC3)[C@H](c3ccccc3)C2)c1 (single isomer, unassigned) [48-34]	2.31 µM	25%	32%	3.82 µM		9858 (48) %	9.86 µM	39%	0.704 µM			
NS(=O)(=O)c1cccc(N2CCN(C[C@H]3CC[C@H](C(F)(F)F)CC3)[C@H](c3ccccc3)C2)c1 (single isomer, unassigned) [48-36]	> 50 µM			> 20 µM			> 20 µM	25%	16.4 µM			
NS(=O)(=O)c1cccc(N2CCN(C[C@H]3CC[C@H](C(F)(F)F)CC3)[C@@H](c3ccccc3)C2)c1 (single isomer, unassigned) [48-37]	2.35 µM	33%	19%	1.18 µM		2829 (39) %	2.83 µM	30%	1.29 µM			
CS(=O)(=O)c1cccc(N2CCN(C[C@H]3CCN(CC(F)(F)F)C3)[C@H](c3ccccc3)C2)c1 (single isomer, unassigned) [48-60]						18622 (13) %				6.83 µM		EC50 (LXR α LBD protein [1]; [10]): 16.1 µM; FRET LXRα efficacy (LXR α LBD protein [1]; [10]): 27%; Cell LXRβ efficacy [2, 11]: 6832 (7) %; EC50 [4, 12]: 18.6 µM; EC50 (LXR β LBD protein [5]): 1.03 µM; FRET LXRβ efficacy (LXR β LBD protein [5]; [10]): 1032 (33) %
CS(=O)(=O)c1cccc(N2CCN(C[C@@H]3CCN(CC(F)(F)F)C3)[C@H](c3ccccc3)C2)c1 (single isomer, unassigned) [48-62]										4.68 µM		EC50 (LXR α LBD protein [1]; [10]): 9.98 µM; FRET LXRα efficacy (LXR α LBD protein [1]; [10]): 39%; Cell LXRβ efficacy [2, 11]: 4682 (8) %; EC50 [4, 12]: > 20 µM; EC50 (LXR β LBD protein [5]): 2.1 µM
CS(=O)(=O)c1cc(N2CCN(C[C@H]3CC[C@H](C(F)(F)F)CC3)[C@H](c3ccccc3)C2)ccc1C#N (single isomer, unassigned) [50-3]							> 20 µM					EC50 (LXR α LBD protein [1]; [10]): 12.9 µM; FRET LXRα efficacy (LXR α LBD protein [1]; [10]): 71%; EC50 ([2]; Biological Test Example 2, agonist mode, read-out: Cell LXRβ EC50): > 20 µM; FRET LXRβ efficacy (LXR β LBD protein [5]; [10]): 52%; EC50 (LXR β LBD protein [5]; Biological Test Example 3, agonist mode, read-out: FRET LXRβ EC50): 1.66 µM
CC(C)[C@@H]1CN(c2ccc(F)c(S(C)(=O)=O)c2)CCN1C(=O)OC(C)(C)C [2-1, tert-butyl (R)-4-(4-fluoro-3-(methylsulfonyl)phenyl)-2-isopropylpiperazine-1-carboxylate]	0.901 µM	48%	684 (36) %		0.209 µM	5252 (61) %	5.25 µM	74%	0.056 µM	0.684 µM		
CC(C)(O)c1ccc(CN2CCN(c3cccc(S(C)(=O)=O)c3)C[C@H]2c2ccccc2)cc1 [10-11, (R)-2-(4-((4-(3-(methylsulfonyl)phenyl)-2-phenylpiperazin-1-yl)methyl)phenyl)propan-2-ol]	> 50 µM						> 20 µM			> 20 µM	> 50 µM	
CS(=O)(=O)c1cccc(N2CCN(Cc3ccc(OC(F)F)cc3)[C@H](c3ccccc3)C2)c1 [46-10, (R)-1-(4-(difluoromethoxy)benzyl)-4-(3-(methylsulfonyl)phenyl)-2-phenylpiperazine]	40.7 µM									> 20 µM	25 µM	FRET LXRα efficacy (LXR α LBD protein [1]): 40680 (55) %; EC50 [4]: > 20 µM; FRET LXRβ efficacy (LXR β LBD protein [5]): 24999 (94) %
C[C@@]1(c2ccccc2)CN(c2cccc(S(C)(=O)=O)c2)CCN1Cc1ccc(C(F)(F)F)cc1 [46-20, (R)-2-methyl-4-(3-(methylsulfonyl)phenyl)-2-phenyl-1-(4-(trifluoromethyl)benzyl)piperazine]	> 50 µM									> 20 µM	> 50 µM	EC50 [4, 9]: > 20 µM
CS(=O)(=O)c1cccc(N2CCN(C[C@H]3CC[C@@H](C(F)(F)F)CC3)[C@@H](c3ccc(F)cc3)C2)c1 [Cpd No 48-43, (S)-2-(4-fluorophenyl)-4-(3-(methylsulfonyl)phenyl)-1-(((1s,4R)-4-(trifluoromethyl)cyclohexyl)methyl)piperazine]	0.207 µM	48%			0.015 µM	240 (54) %				0.047 µM	0.027 µM	Cell LXRβ efficacy [2]: 47 (32) %; EC50 [4, 9]: 0.24 µM; FRET LXRβ efficacy (LXR β LBD protein [5]): 27 (43) %
benzyl 4-(3-(methylsulfonyl)phenyl)-2-phenylpiperazine-1-carboxylate [1-14]	1.54 µM	27%		> 20 µM			> 20 µM	25%				
tert-butyl 2-(2-bromophenyl)-4-(3-(methylsulfonyl)phenyl)piperazine-1-carboxylate [1-9]	> 50 µM			> 20 µM			> 20 µM	32%	0.564 µM			
tert-butyl 2-cyclohexyl-4-(3-(methylsulfonyl)phenyl)piperazine-1-carboxylate [1-11]	19.1 µM	27%	2%	15.7 µM		16278 (16) %	16.3 µM	25%	0.34 µM			
tert-butyl 2-methyl-4-(3-(methylsulfonyl)phenyl)-2-phenylpiperazine-1-carboxylate [1-10]	3.53 µM	28%		> 20 µM			> 20 µM	31%	0.5 µM			
